Assay results reported in US11083725B2 (priority 2014, dated 2021).

Tested on: NHBE cells
Test: Biolog metabolic array: substrate use by NHBE cells with or without CA09 infection
Type: cell-based, human
[1] = Control (uninfected) NHBE cells
[2] = Virus (CA09-infected, MOI 1) NHBE cells
[3] = Virus: CA09-infected NHBE cells, MOI 1, Biolog PMM2

Cc1cn([C@H]2C[C@H](O)[C@@H](CO)O2)c(=O)[nH]c1=O [Thymidine]
590 nm absorbance normalized to zero hour (substrate use), 1 hr [1]: 1.65
590 nm absorbance normalized to zero hour (substrate use), 2 hr [1]: 1.61
590 nm absorbance normalized to zero hour (substrate use), 3 hr [1]: 1.67
590 nm absorbance normalized to zero hour (substrate use), 4 hr [1]: 1.64
590 nm absorbance normalized to zero hour (substrate use), 6 hr [1]: 0.92
590 nm absorbance normalized to zero hour (substrate use), 8 hr [1]: 0.62
590 nm absorbance normalized to zero hour (substrate use), 9 hr [1]: 1.52
590 nm absorbance normalized to zero hour (substrate use), 10 hr [1]: 1.43
590 nm absorbance normalized to zero hour (substrate use), 11 hr [1]: 0.81
Substrate use, 590 nm absorbance normalized to zero hour, 1 hr (Control (uninfected) NHBE cells, Biolog PMM2, 1 hr): 1.65
Substrate use, 590 nm absorbance normalized to zero hour, 5 hr (Control (uninfected) NHBE cells, Biolog PMM2, 5 hr): 1.75
Substrate use, 590 nm absorbance normalized to zero hour, 7 hr (Control (uninfected) NHBE cells, Biolog PMM2, 7 hr): 0.61
590 nm absorbance normalized to zero hour (substrate use), 1 hr [2]: 1.52
590 nm absorbance normalized to zero hour (substrate use), 2 hr [2]: 2.29
590 nm absorbance normalized to zero hour (substrate use), 3 hr [2]: 2.27
590 nm absorbance normalized to zero hour (substrate use), 4 hr [2]: 2.32
590 nm absorbance normalized to zero hour (substrate use), 5 hr [2]: 2.34
590 nm absorbance normalized to zero hour (substrate use), 6 hr [2]: 2.33
590 nm absorbance normalized to zero hour (substrate use), 7 hr [2]: 2.34
590 nm absorbance normalized to zero hour (substrate use), 8 hr [2]: 2.26
590 nm absorbance normalized to zero hour (substrate use), 9 hr [2]: 2.28
590 nm absorbance normalized to zero hour (substrate use), 10 hr [2]: 0.94
590 nm absorbance normalized to zero hour (substrate use), 11 hr [2]: 2.21
590 nm absorbance normalized to zero hour (substrate use), 1 hr [3]: 1.52
590 nm absorbance normalized to zero hour (substrate use), 2 hr [3]: 2.29
590 nm absorbance normalized to zero hour (substrate use), 3 hr [3]: 2.27
590 nm absorbance normalized to zero hour (substrate use), 4 hr [3]: 2.32
590 nm absorbance normalized to zero hour (substrate use), 5 hr [3]: 2.34
590 nm absorbance normalized to zero hour (substrate use), 6 hr [3]: 2.33
590 nm absorbance normalized to zero hour (substrate use), 7 hr [3]: 2.34
590 nm absorbance normalized to zero hour (substrate use), 8 hr [3]: 2.26
590 nm absorbance normalized to zero hour (substrate use), 9 hr [3]: 2.28
590 nm absorbance normalized to zero hour (substrate use), 10 hr [3]: 0.94
590 nm absorbance normalized to zero hour (substrate use), 11 hr [3]: 2.21
